Measurements from the supplement of paper PMC11061612.

Experiments:
KALS-1 (Glioblastoma) = assay: Bliss excess, mean over the matrix (fraction); higher = more synergy
Procedure, shortened: (§1)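 Cell lines grown in DMEM/F12 or RPMI with 10% FBS were plated in 1536-well plates and held 24 hours at 37°C, 5% CO2 before 72 hours of exposure to two-drug dose matrices, with DMSO typically at 0.2%. CellTiter-Glo 2.0 luminescence gave viability, which was converted to inhibition. Vehicle wells were set to 0 and blank wells to 1. Combination Emax is the second-highest inhibition in the matrix, and Bliss excess is the observed combination effect minus the expected EA + EB − EA·EB, where EA and EB are the single-agent effects.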

[1] = system: RCC-JW (Kidney Carcinoma); assay: as above
Procedure, shortened: as §1

[2] = system: BxPC-3 (Pancreatic Carcinoma); assay: as above
Procedure, shortened: as §1

[3] = system: ZR-75-30 (Breast Carcinoma); assay: as above
Procedure, shortened: as §1

[4] = system: COR-L88 (Small Cell Lung Carcinoma); assay: as above
Procedure, shortened: as §1

[5] = system: LCLC-103H (Non-Small Cell Lung Carcinoma); assay: as above
Procedure, shortened: as §1

[6] = system: KP-4 (Pancreatic Carcinoma); assay: as above
Procedure, shortened: as §1

[7] = system: MONO-MAC-6 (Acute Myeloid Leukemia); assay: as above
Procedure, shortened: as §1

[8] = system: NCI-H3118 (Head and Neck Carcinoma); assay: as above
Procedure, shortened: as §1

GAK (Melanoma) = assay: as above
Procedure, shortened: as §1

[9] = system: SK-CO-1 (Colorectal Carcinoma); assay: as above
Procedure, shortened: as §1

[10] = system: SNU-423 (Hepatocellular Carcinoma); assay: as above
Procedure, shortened: as §1

[11] = system: HPAF-II (Pancreatic Carcinoma); assay: as above
Procedure, shortened: as §1

[12] = system: KP-4 (Pancreatic Carcinoma); assay: combination Emax (second highest fraction inhibited in the dose matrix, 72 h); higher = more inhibition; extreme values may be limits of the assay
Procedure, shortened: as §1

[13] = system: SNU-407 (Colorectal Carcinoma); assay: Bliss excess, mean over the matrix (fraction); higher = more synergy
Procedure, shortened: as §1

[14] = system: NCI-H1876 (Small Cell Lung Carcinoma); assay: as above
Procedure, shortened: as §1

[15] = system: OAW-28 (Ovarian Carcinoma); assay: combination Emax (second highest fraction inhibited in the dose matrix, 72 h); higher = more inhibition; extreme values may be limits of the assay
Procedure, shortened: as §1

[16] = system: SNU-407 (Colorectal Carcinoma); assay: as above
Procedure, shortened: as §1

[17] = system: NCI-H1876 (Small Cell Lung Carcinoma); assay: as above
Procedure, shortened: as §1

[18] = system: NCI-H596 (Other Solid Carcinomas); assay: as above
Procedure, shortened: as §1
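For Bliss excess, mean over the matrix in this document: after 72 h of two-drug dosing.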

| Compound | Bliss excess (KALS-1 (Glioblastoma)) | Bliss excess [1] | Bliss excess [2] | Bliss excess [3] | Bliss excess [4] | Bliss excess [5] | Bliss excess [6] | Bliss excess [7] | Bliss excess [8] | Bliss excess (GAK (Melanoma)) | Bliss excess [9] | Bliss excess [10] | Bliss excess [11] | combination Emax [12] | Bliss excess [13] | Bliss excess [14] | combination Emax [15] | combination Emax [16] | combination Emax [17] | combination Emax [18] |
| --- | --- | --- | --- | --- | --- | --- | --- | --- | --- | --- | --- | --- | --- | --- | --- | --- | --- | --- | --- | --- |
| CS(=O)(=O)CCNCc1ccc(-c2ccc3ncnc(Nc4ccc(OCc5cccc(F)c5)c(Cl)c4)c3c2)o1 [Lapatinib] + Cn1cnc2c(F)c(Nc3ccc(Br)cc3Cl)c(C(=O)NOCCO)cc21 [Selumetinib] (first compound max 10 µM, 7x7, partner max 10 µM) | 0.0025 | -0.0525 | 0.0703 | -0.0329 | -0.0301 | -0.0744 | 0.0641 | 0.0017 | 0.0206 | -0.0769 | 0.0335 | -0.0083 | 0.109 | 0.382 | – | – | – | – | – | – |
| CS(=O)(=O)CCNCc1ccc(-c2ccc3ncnc(Nc4ccc(OCc5cccc(F)c5)c(Cl)c4)c3c2)o1 [Lapatinib] + NC1(c2ccc(-c3nc4ccn5c(=O)[nH]nc5c4cc3-c3ccccc3)cc2)CCC1 [MK-2206] (first compound max 10 µM, 7x7, partner max 10 µM) | -0.004 | -0.0285 | 0.0263 | -0.0604 | 0.0151 | -0.0428 | -0.0389 | 0.0302 | 0.0618 | 0.0347 | 0.0289 | 0.0232 | 0.0089 | 0.275 | 0.0808 | 0.0885 | 0.898 | 0.808 | 0.948 | 0.822 |
| O=C(c1cc(Cc2n[nH]c(=O)c3ccccc23)ccc1F)N1CCN(C(=O)C2CC2)CC1 [Olaparib] + CC1(C)CCC(CN2CCN(c3ccc(C(=O)NS(=O)(=O)c4ccc(NCC5CCOCC5)c([N+](=O)[O-])c4)c(Oc4cnc5[nH]ccc5c4)c3)CC2)=C(c2ccc(Cl)cc2)C1 [Venetoclax] (first compound max 10 µM, 7x7, partner max 1 µM) | -0.0353 | -0.045 | -0.0569 | -0.0247 | 0.0604 | -0.0212 | -0.0331 | 0.0368 | -0.028 | -0.048 | -0.0405 | -0.0472 | -0.0183 | 0.135 | – | – | – | – | – | – |
| O=C(c1cc(Cc2n[nH]c(=O)c3ccccc23)ccc1F)N1CCN(C(=O)C2CC2)CC1 [Olaparib] + CN(CC[C@H](CSC1=CC=CC=C1)NC2=C(C=C(C=C2)S(=O)(=O)NC(=O)C3=CC=C(C=C3)N4CCC(CC4)[C@H](C5=CC=CC=C5C6=CC=C(C=C6)Cl)O)S(=O)(=O)C(F)(F)F)CCO [AZD4320] (first compound max 10 µM, 7x7, partner max 1 µM) | -0.0432 | -0.0532 | -0.0424 | -0.0327 | 0.0077 | -0.0339 | -0.0113 | 0.0291 | -0.0182 | -0.0104 | 0.0256 | -0.0182 | -0.0399 | 0.155 | – | – | – | – | – | – |
| O=C(c1cc(Cc2n[nH]c(=O)c3ccccc23)ccc1F)N1CCN(C(=O)C2CC2)CC1 [Olaparib] + COc1nnc2ccc(N3CCC(c4ccc(OCCN5CCN(C)C(=O)[C@H]5C)cc4)CC3)nn12 [AZD5153] (first compound max 10 µM, 7x7, partner max 1 µM) | -0.0141 | -0.143 | -0.106 | -0.0502 | -0.0582 | -0.0369 | -0.0266 | -0.0333 | -0.0669 | -0.0642 | -0.0441 | -0.0546 | 0.0018 | 0.532 | – | – | – | – | – | – |
| O=C(c1cc(Cc2n[nH]c(=O)c3ccccc23)ccc1F)N1CCN(C(=O)C2CC2)CC1 [Olaparib] + Cc1c2c(nn1C)CSCc1cc(n(C)n1)CSc1cc(c3ccccc3c1)OCCCc1c(C(=O)O)n(C)c3c-2c(Cl)ccc13 [AZD5991] (first compound max 10 µM, 7x7, partner max 1 µM) | -0.0158 | -0.0125 | -0.066 | -0.0227 | 0.0223 | -0.0206 | -0.0386 | 0.0434 | -0.006 | -0.0516 | -0.0091 | -0.0503 | -0.0366 | 0.113 | – | – | – | – | – | – |
| N#Cc1cnc(Nc2cc(NC[C@H]3CNCCO3)c(C(F)(F)F)cn2)cn1 [SRA737] + C=CCn1c(=O)c2cnc(Nc3ccc(N4CCN(C)CC4)cc3)nc2n1-c1cccc(C(C)(C)O)n1 [AZD1775] (first compound max 10 µM, partner max 1 µM) | 0.0439 | -0.002 | 0.0061 | -0.0093 | 0.111 | 0.0146 | 0.0595 | 0.0824 | 0.0583 | 0.0525 | 0.0306 | 0.0786 | 0.0176 | 0.597 | – | – | – | – | – | – |
| N#Cc1cnc(Nc2cc(NC[C@H]3CNCCO3)c(C(F)(F)F)cn2)cn1 [SRA737] + O=c1[nH]cc(F)c(=O)[nH]1 [5-Fluorouracil] (first compound max 10 µM, 7x7, partner max 20 µM) | 0.0085 | -0.0355 | -0.0019 | -0.0283 | -0.0088 | 0.0215 | 0.0334 | 0.0181 | 0.0141 | -0.012 | 0.0188 | 0.0005 | 0.036 | 0.376 | – | – | – | – | – | – |
| Cc1nc(-c2cn3c(n2)-c2ccc(-c4cnn(C(C)(C)C(N)=O)c4)cc2OCC3)n(C(C)C)n1 [Taselisib] + O=C(Nc1ccc2[nH]nc(-c3ccncc3)c2c1)[C@@H]1CCN(CC(=O)N2CCN(c3ccc(-c4ncccn4)cc3)CC2)C1 [SCH772984] (first compound max 10 µM, 7x7, partner max 5 µM) | -0.0253 | -0.0167 | 0.133 | 0.0556 | 0.004 | 0.0056 | 0.215 | 0.0832 | 0.0633 | 0.0592 | 0.0763 | 0.0656 | 0.224 | 0.776 | – | – | – | – | – | – |
| CC1(C)CCC(CN2CCN(c3ccc(C(=O)NS(=O)(=O)c4ccc(NCC5CCOCC5)c([N+](=O)[O-])c4)c(Oc4cnc5[nH]ccc5c4)c3)CC2)=C(c2ccc(Cl)cc2)C1 [Venetoclax] + CS(=O)(=O)CCNCc1ccc(-c2ccc3ncnc(Nc4ccc(OCc5cccc(F)c5)c(Cl)c4)c3c2)o1 [Lapatinib] (first compound max 1 µM, 7x7, partner max 10 µM) | -0.0431 | -0.0229 | -0.0299 | 0.0215 | -0.0146 | -0.0319 | -0.0168 | -0.0371 | -0.014 | 0.0293 | 0.0109 | -0.0254 | -0.0355 | 0.0862 | – | – | – | – | – | – |
